From publication PMC7804859, “A metabolically stable apelin-17 analog decreases AVP-induced antidiuresis and improves hyponatremia” (Nature Communications, 2021)
Where “and” joins values, the source holds several entries; their conditions need not be identical. Identical values can stand only once.

Assays:
human V2-R = target: T1, human V2-R (Homo sapiens, UniProt P30518); assay: cAMP production in HEK-293 T cells expressing the human V2-R (HTRF); format: cell-based; conditions: HEK-293 T cells, human V2-R
T1 construct: host or cells: HEK-293T cells, transient transfection
T1 sequence (P30518 whole entry): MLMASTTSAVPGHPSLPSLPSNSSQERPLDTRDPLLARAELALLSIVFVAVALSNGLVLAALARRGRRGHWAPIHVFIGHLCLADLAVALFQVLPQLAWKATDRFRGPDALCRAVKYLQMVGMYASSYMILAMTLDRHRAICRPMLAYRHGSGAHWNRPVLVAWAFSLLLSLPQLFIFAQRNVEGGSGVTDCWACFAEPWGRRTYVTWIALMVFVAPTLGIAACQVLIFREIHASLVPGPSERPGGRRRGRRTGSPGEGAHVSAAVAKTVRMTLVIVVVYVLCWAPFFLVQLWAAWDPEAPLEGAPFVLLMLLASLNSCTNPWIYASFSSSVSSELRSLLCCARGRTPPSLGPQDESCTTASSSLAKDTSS
Experimental: (§1) 152 Supplementary Methods
(§2) 154 We quantified cAMP production with the cAMP dynamic 2 assay kit (Cisbio Bioassays,
(§3) 155 Codolet, France), which is based on homogeneous time-resolved fluorescence (HTRF)
156 technology, as previously described 1. […]
(§4) For cells expressing the V2-R, HEK-
(§5) 160 293T cells were transiently transfected with the human V2-R (cDNA Resource Center), after
(§6) 161 48h, 4000 cells/well were added to white 384-well optiplates and stimulated either with 5
(§7) Cells were then lysed, and
(§8) 165 cAMP levels were determined in accordance with the kit manufacturer’s instructions.
(§9) 166 Stimulation was performed in stimulation buffer-IBMX (SBI) (Hank’s balanced salt solution
(§10) 167 (HBSS-Life Technology), 5 mmol/l Hepes, 0.1% BSA stabilizer (Perkin Elmer), 1 mmol/l
168 isobutylmethylxanthine (IBMX, Sigma Aldrich, pH 7.4)). […]

mpkCCD cells = assay: Forskolin-induced cAMP production in mpkCCD cells; format: cell-based, mouse
Experimental: as §1, §2, §3
156 technology, as previously described 1. For cells expressing the Apelin-R, 2000 CHO cells/well
157 stably expressing rat apelinR-EGFP (clone B70) were added to the 384-well plate and
158 stimulated with 5 µmol/l forskolin (FSK) and various concentrations (0.01 pmol/l to 100
as §4, §5, §6, §7, §8, §9, §10
168 isobutylmethylxanthine (IBMX, Sigma Aldrich, pH 7.4)). For cAMP assay with mpkCCD
169 cells, the cells were grown on 12 mm Transwell filters (0.4 μm pore size, Corning Costar,
170 Cambridge, MA) until they reach confluency (4-5 days). For forskolin experiments, culture
171 media was replaced with SBI in apical and basolateral compartments. After 30 min of […]

[1] = Brain apelin-immunoreactive levels in mice (RIA); format: in vivo, mouse
Experimental: Then cells were treated with 10
Results are expressed in femtomoles of cAMP produced
187 Apelin radioimmunoassay
189 until use for apelin RIA.
The supernatants were collected and
The samples were dried and dissolved in
201 centrifuged (17000 x g, 4°C, 20 min). The supernatant (4 ml) was collected, and mixed with
The columns were then treated as described in
Samples (0.1ml) w ere mixed with 125I-
212 used this radioligand instead of [Glp65, Nle75, Tyr77] [125I]-apelin13 since the substitution of
214 derivatives as described previously by 3,4.
216 incubated for 10 min at room temperature.
This antiserum identified the apelin present in the
Most of the apelin in human plasma was […]

With `CSCC[C@H](NC(=O)[C@@H]1CCCN1C(=O)CNC(=O)[C@H](CCCCN)NC(=O)[C@H](Cc1c[nH]cn1)NC(=O)[C@H](CO)NC(=O)[C@H](CC(C)C)NC(=O)[C@H](CCCNC(=N)N)NC(=O)[C@@H]1CCCN1C(=O)[C@H](CCCNC(=N)N)NC(=O)[C@H](CCC(N)=O)NC(=O)[C@H](CCCNC(=N)N)NC(=O)[C@H](CCCNC(=N)N)NC(=O)[C@H](Cc1ccccc1)NC(=O)[C@H](CCCCN)NC(=O)CCC(F)(F)C(F)(F)C(F)(F)C(F)(F)C(F)(F)C(F)(F)C(F)(F)C(F)(F)F)C(=O)N1CCC[C@H]1C(=O)N[C@@H](Cc1ccccc1)C(=O)O` [LIT01-196] the “effect on cAMP production induced by 1 µmol/l AVP” value (human V2-R; 1 µmol/l compound, 30 min 37 °C) was “did not modify”, the “effect on basal cAMP production” value (human V2-R; compound alone at 1 µmol/l) was “did not modify” and the “inhibition of cAMP production induced by forskolin” value (mpkCCD cells; 1 µmol/l compound, forskolin 1 µmol/l, mpkCCD cells, 30 min 37 °C) was 32%. For the same compound, the “Forskolin-induced cAMP production, value (Fig 2C)” value (mpkCCD cells; Forskolin + peptide, single measurements) was 89, the apelin.brain ([1]; LIT01-196 900 nmol/kg, individual animals (Fig. S2C source data)) was 0.257 and 0.271 and 0.513 and 0.58 and the “apelin-IR levels in the brain” value ([1]; mice, 30 min after s.c. 900 nmol/kg, saline 0.391 ± 0.045, n = 5) was 0.440 ± 0.073 pmol/brain.
